According to ChEMBL document CHEMBL1201861, “Genomics of Drug Sensitity in Cancer screening data, Wellcome Trust Sanger Institute”:

Assays:
Assay in all cases: cells
ES8 = format: functional, cell-based, Homo sapiens; conditions: Homo sapiens, ES8;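 also: growth inhibition of human ES8 cells, read out with a cell viability assay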
Description: SANGER: Inhibition of human ES8 cell growth in a cell viability assay.

GT3TKB = format: functional, cell-based, Homo sapiens; conditions: Homo sapiens, GT3TKB;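 also: growth inhibition of the cell line, read out with a cell viability assay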
Description: SANGER: Inhibition of human GT3TKB cell growth in a cell viability assay.

U-87 MG = format: functional, cell-based, Homo sapiens, U-87MG ATCC; conditions: Homo sapiens, U-87 MG;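 also: growth inhibition of the cells measured with a viability assay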
Description: SANGER: Inhibition of human U-87-MG cell growth in a cell viability assay.

SK-MEL-2 = format: functional, cell-based, Homo sapiens; conditions: Homo sapiens, SK-MEL-2;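 also: growth inhibition of human SK-MEL-2 cells measured with a cell viability assay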
Description: SANGER: Inhibition of human SK-MEL-2 cell growth in a cell viability assay.

LC-2-ad = format: functional, cell-based, Homo sapiens; conditions: Homo sapiens, LC-2-ad;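 also: growth inhibition of human LC-2-ad cells, read out with a cell viability assay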
Description: SANGER: Inhibition of human LC-2-ad cell growth in a cell viability assay.

SW684 = format: functional, cell-based, Homo sapiens; conditions: Homo sapiens, SW684;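 also: growth inhibition of human SW684 cells, measured by a cell viability assay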
Description: SANGER: Inhibition of human SW684 cell growth in a cell viability assay.

KMOE-2 = format: functional, cell-based, Homo sapiens; conditions: Homo sapiens, KMOE-2;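 also: growth inhibition of human KMOE-2 cells, read out with a cell viability assay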
Description: SANGER: Inhibition of human KMOE-2 cell growth in a cell viability assay.

KE-37 = format: functional, cell-based, Homo sapiens; conditions: Homo sapiens, KE-37;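 also: growth inhibition of KE-37 cells, read out with a cell viability assay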
Description: SANGER: Inhibition of human KE-37 cell growth in a cell viability assay.

ES1 = format: functional, cell-based, Homo sapiens; conditions: Homo sapiens, ES1;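 also: growth inhibition of ES1 cells, read out with a cell viability assay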
Description: SANGER: Inhibition of human ES1 cell growth in a cell viability assay.

HCC 2998 = format: functional, cell-based, Homo sapiens; conditions: Homo sapiens, HCC 2998;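 also: growth inhibition of human HCC2998 cells, measured with a cell viability read-out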
Description: SANGER: Inhibition of human HCC2998 cell growth in a cell viability assay.

CGTH-W-1 = format: functional, cell-based, Homo sapiens; conditions: Homo sapiens, CGTH-W-1;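 also: growth inhibition of human CGTH-W-1 cells measured by cell viability assay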
Description: SANGER: Inhibition of human CGTH-W-1 cell growth in a cell viability assay.

EM-2 = format: functional, cell-based, Homo sapiens; conditions: Homo sapiens, EM-2;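 also: growth inhibition of EM-2 cells, read out with a cell viability assay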
Description: SANGER: Inhibition of human EM-2 cell growth in a cell viability assay.

BT-474 = format: functional, cell-based, Homo sapiens; conditions: Homo sapiens, BT-474
Description: SANGER: Inhibition of human BT-474 cell growth in a cell viability assay.

MPP-89 = format: functional, cell-based, Homo sapiens; conditions: Homo sapiens, MPP-89;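 also: growth inhibition of human MPP-89 cells, read out with a cell viability assay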
Description: SANGER: Inhibition of human MPP-89 cell growth in a cell viability assay.

BB30-HNC = format: functional, cell-based, Homo sapiens; conditions: Homo sapiens, BB30-HNC;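 also: growth inhibition of the cultured cell line, read out by a cell viability assay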
Description: SANGER: Inhibition of human BB30-HNC cell growth in a cell viability assay.

KNS-81-FD = format: functional, cell-based, Homo sapiens; conditions: Homo sapiens, KNS-81-FD;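 also: growth inhibition of KNS-81-FD cells, read out with a cell viability assay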
Description: SANGER: Inhibition of human KNS-81-FD cell growth in a cell viability assay.

NCI-H209 = format: functional, cell-based, Homo sapiens; conditions: Homo sapiens, NCI-H209;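 also: growth inhibition of human NCI-H209 cells, measured by a cell viability assay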
Description: SANGER: Inhibition of human NCI-H209 cell growth in a cell viability assay.

KINGS-1 = format: functional, cell-based, Homo sapiens; conditions: Homo sapiens, KINGS-1;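 also: cell viability assay measuring suppression of KINGS-1 cell growth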
Description: SANGER: Inhibition of human KINGS-1 cell growth in a cell viability assay.

NB10 = format: functional, cell-based, Homo sapiens; conditions: Homo sapiens, NB10;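 also: growth inhibition of NB10 cells, read out by a cell viability assay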
Description: SANGER: Inhibition of human NB10 cell growth in a cell viability assay.

NCI-H226 = format: functional, cell-based, Homo sapiens; conditions: Homo sapiens, NCI-H226;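 also: cell viability read-out used to gauge growth inhibition of the cells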
Description: SANGER: Inhibition of human NCI-H226 cell growth in a cell viability assay.

HEL = format: functional, cell-based, Homo sapiens; conditions: Homo sapiens, HEL;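 also: growth inhibition of HEL cells, read out with a cell viability assay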
Description: SANGER: Inhibition of human HEL cell growth in a cell viability assay.

SHP77 = format: functional, cell-based, Homo sapiens, SHP-77; conditions: Homo sapiens, SHP77;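 also: growth inhibition of human SHP-77 cells measured by a cell viability assay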
Description: SANGER: Inhibition of human SHP-77 cell growth in a cell viability assay.

LS-411N = format: functional, cell-based, Homo sapiens; conditions: Homo sapiens, LS-411N
KM-H2 = format: functional, cell-based, Homo sapiens; conditions: Homo sapiens, KM-H2;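 also: growth inhibition of KM-H2 cells, read out by a cell viability assay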
Description: SANGER: Inhibition of human KM-H2 cell growth in a cell viability assay.

D-502MG = format: functional, cell-based, Homo sapiens; conditions: Homo sapiens, D-502MG
Description: SANGER: Inhibition of human D-502MG cell growth in a cell viability assay.

TK-10 = format: functional, cell-based, Homo sapiens; conditions: Homo sapiens, TK-10;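 also: growth inhibition of TK-10 cells, read out in a cell viability assay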
Description: SANGER: Inhibition of human TK10 cell growth in a cell viability assay.

SF-268 = format: functional, cell-based, Homo sapiens; conditions: Homo sapiens, SF-268;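 also: growth inhibition of SF-268 cells determined with a cell viability assay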
Description: SANGER: Inhibition of human SF268 cell growth in a cell viability assay.

EW-3 = format: functional, cell-based, Homo sapiens; conditions: Homo sapiens, EW-3;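 also: cell viability assay read-out, IC50 reflects inhibition of growth of the EW-3 cells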
Description: SANGER: Inhibition of human EW-3 cell growth in a cell viability assay.

ACN = format: functional, cell-based, Homo sapiens; conditions: Homo sapiens, ACN;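 also: growth inhibition of the human ACN cell line, read out via cell viability testing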
Description: SANGER: Inhibition of human ACN cell growth in a cell viability assay.

SH-4 = format: functional, cell-based, Homo sapiens; conditions: Homo sapiens, SH-4;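 also: growth inhibition of SH-4 cells, read out with a cell viability assay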
Description: SANGER: Inhibition of human SH-4 cell growth in a cell viability assay.

COLO-668 = format: functional, cell-based, Homo sapiens; conditions: Homo sapiens, COLO-668
Description: SANGER: Inhibition of human COLO-668 cell growth in a cell viability assay.

no-11 = format: functional, cell-based, Homo sapiens; conditions: Homo sapiens;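 also: growth inhibition of human NO-11 cells, read out with a cell viability assay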
Description: SANGER: Inhibition of human no-11 cell growth in a cell viability assay.

NEC8 = format: functional, cell-based, Homo sapiens; conditions: Homo sapiens, NEC8;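 also: growth inhibition of human NEC8 cells, read out by a cell viability assay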
Description: SANGER: Inhibition of human NEC8 cell growth in a cell viability assay.

IST-MEL1 = format: functional, cell-based, Homo sapiens; conditions: Homo sapiens, IST-MEL1;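 also: growth inhibition of the cell line, read out with a cell viability assay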
Description: SANGER: Inhibition of human IST-MEL1 cell growth in a cell viability assay.

MZ2-MEL = format: functional, cell-based, Homo sapiens; conditions: Homo sapiens, MZ2-MEL;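 also: growth inhibition of MZ2-MEL cells read out with a cell viability assay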
Description: SANGER: Inhibition of human MZ2-MEL cell growth in a cell viability assay.

HOP-62 = format: functional, cell-based, Homo sapiens; conditions: Homo sapiens, HOP-62;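 also: cell growth inhibition determined with a viability assay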
Description: SANGER: Inhibition of human HOP-62 cell growth in a cell viability assay.

SW 954 = format: functional, cell-based, Homo sapiens; conditions: Homo sapiens, SW 954;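 also: growth inhibition of SW954 human cancer cells, read out as cell viability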
Description: SANGER: Inhibition of human SW954 cell growth in a cell viability assay.

LB996-RCC = format: functional, cell-based, Homo sapiens; conditions: Homo sapiens, LB996-RCC
Description: SANGER: Inhibition of human LB996-RCC cell growth in a cell viability assay.

EW-16 = format: functional, cell-based, Homo sapiens; conditions: Homo sapiens, EW-16;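 also: growth inhibition of human EW-16 cells, read out as cell viability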
Description: SANGER: Inhibition of human EW-16 cell growth in a cell viability assay.

MFH-ino = format: functional, cell-based, Homo sapiens; conditions: Homo sapiens, MFH-ino;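 also: growth inhibition of human MFH-ino cells, read out by a cell viability assay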
Description: SANGER: Inhibition of human MFH-ino cell growth in a cell viability assay.

ALL-PO = format: functional, cell-based, Homo sapiens; conditions: Homo sapiens, ALL-PO;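 also: growth inhibition of ALL-PO cells, read out by a cell viability assay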
Description: SANGER: Inhibition of human ALL-PO cell growth in a cell viability assay.

MZ7-mel = format: functional, cell-based, Homo sapiens; conditions: Homo sapiens, MZ7-mel;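 also: growth inhibition of human MZ7-mel cells, measured by a cell viability assay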
Description: SANGER: Inhibition of human MZ7-mel cell growth in a cell viability assay.

OCUB-M = format: functional, cell-based, Homo sapiens; conditions: Homo sapiens, OCUB-M;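 also: growth inhibition of the cancer cell line, read out through a cell viability assay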
Description: SANGER: Inhibition of human OCUB-M cell growth in a cell viability assay.

PSN1 = format: functional, cell-based, Homo sapiens; conditions: Homo sapiens, PSN1;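 also: suppression of growth of human PSN1 cells, read out by a cell viability assay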
Description: SANGER: Inhibition of human PSN1 cell growth in a cell viability assay.

GAK = format: functional, cell-based, Homo sapiens; conditions: Homo sapiens, GAK;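 also: cell growth inhibition read out by a cell viability assay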
Description: SANGER: Inhibition of human GAK cell growth in a cell viability assay.

A498 = format: functional, cell-based, Homo sapiens; conditions: Homo sapiens, A498;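 also: growth inhibition of human A498 cells, read out with a cell viability assay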
Description: SANGER: Inhibition of human A498 cell growth in a cell viability assay.

RPMI-8226 = format: functional, cell-based, Homo sapiens; conditions: Homo sapiens, RPMI-8226
Description: SANGER: Inhibition of human RPMI-8226 cell growth in a cell viability assay.

SW982 = format: functional, cell-based, Homo sapiens; conditions: Homo sapiens, SW982;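 also: growth inhibition of SW982 cells, read out with a cell viability assay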
Description: SANGER: Inhibition of human SW982 cell growth in a cell viability assay.

A704 = format: functional, cell-based, Homo sapiens; conditions: Homo sapiens, A704;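 also: growth inhibition of human A704 cells, read out with a cell viability assay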
Description: SANGER: Inhibition of human A704 cell growth in a cell viability assay.

In the case of `C#Cc1cccc(Nc2ncnc3cc(OCCOC)c(OCCOC)cc23)c1` [ERLOTINIB], the IC50 (ES8) is reported as over 2 µM, the IC50 (GT3TKB) is reported as over 2 µM and the IC50 (U-87 MG) is reported as over 2 µM. It also gave an IC50 (SK-MEL-2) of over 2 µM, an IC50 (LC-2-ad) of over 2 µM and an IC50 (SW684) of over 2 µM. For the same molecule, the IC50 (KMOE-2) was over 2 µM, the IC50 (KE-37) was over 2 µM and the IC50 (ES1) was over 2 µM. The IC50 (HCC 2998) was over 2 µM, the IC50 (CGTH-W-1) was over 2 µM and the IC50 (EM-2) was over 2 µM. The IC50 (BT-474) was over 2 µM, the IC50 (MPP-89) was over 2 µM and the IC50 (BB30-HNC) was 0.148 µM. For the same molecule, the IC50 (KNS-81-FD) was over 2 µM, the IC50 (NCI-H209) was over 2 µM and the IC50 (KINGS-1) was over 2 µM. The IC50 (NB10) was over 2 µM, the IC50 (NCI-H226) was over 2 µM and the IC50 (HEL) was over 2 µM. It also gave an IC50 (SHP77) of over 2 µM, an IC50 (LS-411N) of over 2 µM and an IC50 (KM-H2) of over 2 µM. For the same molecule, the IC50 (D-502MG) was over 2 µM, the IC50 (TK-10) was 0.859 µM and the IC50 (SF-268) was over 2 µM. It also gave an IC50 (EW-3) of over 2 µM, an IC50 (ACN) of over 2 µM and an IC50 (SH-4) of over 2 µM. The IC50 (COLO-668) was over 2 µM, the IC50 (no-11) was over 2 µM and the IC50 (NEC8) was over 2 µM. The IC50 (IST-MEL1) was over 2 µM, the IC50 (MZ2-MEL) was over 2 µM and the IC50 (HOP-62) was over 2 µM. It also gave an IC50 (SW 954) of over 2 µM, an IC50 (LB996-RCC) of 0.402 µM and an IC50 (EW-16) of over 2 µM. The IC50 (MFH-ino) was over 2 µM, the IC50 (ALL-PO) was over 2 µM and the IC50 (MZ7-mel) was over 2 µM. For the same molecule, the IC50 (OCUB-M) was over 2 µM and the IC50 (PSN1) was over 2 µM.

`CC(C)CCN1c2nc(Nc3cc(F)c(O)c(F)c3)ncc2N(C)C(=O)C1C` (configuration not stated) gave an IC50 (ES8) of 1.88 µM, an IC50 (GAK) of over 5 µM and an IC50 (GT3TKB) of 3.76 µM. The IC50 (U-87 MG) was over 5 µM, the IC50 (SK-MEL-2) was over 5 µM and the IC50 (LC-2-ad) was over 5 µM. The IC50 (SW684) was over 5 µM, the IC50 (A498) was over 5 µM and the IC50 (RPMI-8226) was over 5 µM. The IC50 (KE-37) was 1.59 µM, the IC50 (ES1) was over 5 µM and the IC50 (HCC 2998) was over 5 µM. For the same molecule, the IC50 (SW982) was over 5 µM, the IC50 (CGTH-W-1) was 3.94 µM and the IC50 (EM-2) was 2.92 µM. The IC50 (BT-474) was over 5 µM, the IC50 (MPP-89) was over 5 µM and the IC50 (BB30-HNC) was over 5 µM. For the same molecule, the IC50 (KNS-81-FD) was over 5 µM, the IC50 (NCI-H209) was 0.768 µM and the IC50 (KINGS-1) was over 5 µM. It also gave an IC50 (NB10) of 1.78 µM, an IC50 (NCI-H226) of over 5 µM and an IC50 (HEL) of 2.7 µM. For the same molecule, the IC50 (SHP77) was over 5 µM, the IC50 (LS-411N) was over 5 µM and the IC50 (KM-H2) was over 5 µM. For the same molecule, the IC50 (D-502MG) was 3.07 µM, the IC50 (TK-10) was over 5 µM and the IC50 (SF-268) was 2.87 µM. It also gave an IC50 (EW-3) of 0.0358 µM, an IC50 (ACN) of 2.67 µM and an IC50 (SH-4) of over 5 µM. For the same molecule, the IC50 (COLO-668) was over 5 µM, the IC50 (no-11) was over 5 µM and the IC50 (NEC8) was 1.7 µM. It also gave an IC50 (IST-MEL1) of over 5 µM, an IC50 (MZ2-MEL) of over 5 µM and an IC50 (HOP-62) of 4.31 µM. The IC50 (SW 954) was 2.86 µM, the IC50 (LB996-RCC) was over 5 µM and the IC50 (EW-16) was over 5 µM. For the same molecule, the IC50 (MFH-ino) was over 5 µM, the IC50 (ALL-PO) was over 5 µM and the IC50 (MZ7-mel) was over 5 µM. The IC50 (OCUB-M) was over 5 µM, the IC50 (A704) was over 5 µM and the IC50 (PSN1) was 3.06 µM.
